US20260097047A1, “Small molecule inhibitors of the ribosome biogenesis factor NVL2” (Board of Regents, The University of Texas System, priority 2023, published 2026)

Columns and labels:
[1] = system: MM017-resistant iHCT116 clones; assay: Forward genetics: MM017-resistant iHCT116 clones (NVL mutations); assay type: cell-based, human; settings: summary statement
Text: This system uses an engineered colorectal cancer HCT116 cell line (iHCT116) in which the addition of indole acetic acid (IAA) initiates a ubiquitin-mediated degradation of the DNA mismatch repair protein MLH1, thereby providing a mechanism to temporarily increase mutation rates. We applied this strategy to MM017, a dibenzothiazepinone identified in a high-throughput small molecule screen for HCT116 cytotoxicity. […] We exposed barcoded iHCT116 cells, that had previously been cultured either with (Mutagenesis-on) or without IAA (Mutagenesis-off), to increasingly lethal doses of MM017.
From whole exome sequencing, we identified variants that were acquired during IAA-induced mutagenesis with the hypothesis that genes related to resistance will be mutated in multiple clones.

HCT116 cells = assay: Genome-wide CRISPR/Cas9 knockout screen in HCT116 cells; assay type: cell-based, human; settings: 1 μM pulsed intermittently over 21 days
Text: To better understand how inhibition of NVL by MM017 leads to cell death, we performed a genome wide pooled CRISPR/Cas9 knockout screen in HCT116 cells using a library of guide RNAs targeting 19,114 genes. Cells were pulsed intermittently with vehicle or MM017 over 21 days, at which point MM017 treated cells had undergone 9.79 fewer population doublings. Massively parallel sequencing of PCR products amplified from genomic DNA was used to determine relative levels of sgRNA sequences to infer the relative impact of each gene on compound sensitivity. […]
HCT116 cells stably expressing Cas9 were generated by infecting cells with lentiCas9-Blast (Addgene #52962) and selection with 10 μg/mL blasticidin. […] Viable cells were counted at each passage and collected after 21 days. Genomic DNA was extracted using Blood & Cell Culture DNA Maxi kit (QIAGEN #13362), and concentrations were determined using Quant-iT PicoGreen dsDNA assay kits (Invitrogen #P7589). sgRNAs were PCR-amplified using 28 cycles from approximately 650 μg genomic DNA (10 μg DNA/100 μL reaction) using Ex Taq DNA Polymerase (TaKaRa #RR001B), 8 staggered P5 primers, and 1 unique P7 index primer per sample as described in the “Protocol PCR of sgRNAs from gDNA for Illumina sequencing” published by the Broad Institute (51). […] The mapping reads were counted for each sgRNA using SAMtools (v1.9) with the options “-F 2308-q 1”. […]

HCT116 NVL^R403W tumors = assay: Efficacy study: HCT116 NVL^R403W xenografts; assay type: in vivo, mouse; settings: 35 mg/kg IP twice a day for 21 days
Method: Having established the kinetics of MM927 mediated NVL inhibition in xenograft tumors, we administered 35 mg/kg MM927 IP twice a day for 21 days to mice harboring tumors derived from either HCT116 NVL wild type or NVL^R403W cells. […] Taken together, we concluded that the potent, and bioavailable analog MM927 reduces tumor growth in mouse xenografts by inhibiting NVL without toxicity.
Efficacy study: Five million parental HCT116 cells or HCT116 NVL^R403W in a volume of 0.1 mL were implanted in the right flank. Tumor volumes were measured every 2 to 4 days with calipers. Volume is calculated as [(L*W^2)*3.14]/6. When volumes reached ˜110 mm^3, treatment was started with 35 mg/kg MM927 or vehicle control (0.2 mL/mouse) twice a day for 21 days. Mice were euthanized at the end of the 21-day treatment period or when any tumor reached 2 cm in its largest diameter, in agreement with the approved animal protocol. At the end of treatment, blood and tumor tissue were collected for pharmacokinetic analysis, measurement of complete blood counts, and blood chemistry measurements as described. Serum alanine transaminase and blood urea nitrogen were analyzed using VITROS MicroSlide technology.

COCCN1C(=O)c2ccccc2Sc2cc(NC(=O)c3ccoc3)ccc21 [MM017]
resistance caused by mutations in NVL2 [1]: 30 fold | fewer population doublings than vehicle (HCT116 cells): 9.79

CC#CCN1C(=O)c2ccc(F)cc2Sc2cc(NC(=O)c3ccc4oc(=O)n(C)c4c3)ccc21 [MM927, N-(10-(But-2-yn-1-yl)-3-fluoro-11-oxo-10,11-dihydrodibenzo[b,f][1,4]thiazepin-7-yl)-3-methyl-2-oxo-2,3-dihydrobenzo[d]oxazole-5-carboxamide]
endpoint tumor burden, NVL^R403W (HCT116 NVL^R403W tumors): no effect | rate of growth of NVL^R403W tumors (HCT116 NVL^R403W tumors): no significant impact
